{
  "source": "patent US7790700B2",
  "about": "“Derivatives of partially desulphated glycosaminoglycans endowed with antiangiogenic activity and devoid of anticoagulating effect” (Sigma-Tau Industrie Farmaceutiche Riunite S.p.A., priority 2000, dated 2010)",
  "key": {"[1]": {"tested_on": "chick embryo chorioallantoic membrane", "assay": "Angiostatic activity on CAM model (gelatin sponge)", "format": "in vivo", "experimental": "For the study of angiogenesis the model used was the chick embryo chorioallantoic membrane model (Ribatti e al. Int. J. Dev. Biol., 40, 1189 (1996)).\n300 embryonated hens' eggs were incubated at 37° C. in constant humidity conditions. On the 3rd day of incubation, after aspirating 2-3 ml of albumen from the acute pole of the egg so as to detach the CAM from the shell, a window was cut with scissors in the shell. The vessels underlying the CAM were thus exposed. The window was closed with a transparent glass panel and the eggs were put back into the incubator. On the 8th day of incubation, in sterile conditions, the CAMs were treated according to the protocol described below using a technique developed recently (Ribatti et al. J. Vasc. Res. 34, 455 (1997)), which involves the use of sterile gelatin sponges measuring 1 mm^2 in size. […] The sponges were first rested on the surface of the CAM, and then 3 μl of solution of the test substance were pipetted onto the surface of the sponge. The CAMs were examined daily using a Zeiss SR stereomicroscope equipped with a photographic device. The experiments were discontinued on the 12th day of incubation, when an overall assessment of the angiogenic activity of the molecules was carried out, expressed as percentage inhibition in relation to the number of experiments initiated and completed (Table 9). In addition, for compound ST1514, assayed at the concentration of 100 μg/embryo, a macroscopic quantitative evaluation of the angiostatic activity was also carried out according to the technique proposed by Brooks et al. (Science, 264, 569, (1994)), counting the number of vessels surrounding the sponge. The number of vessels was compared with that of the control sponges treated with PBS (vehicle of the test compound) and with FGF-2 (positive control)."}, "CAM": {"tested_on": "CAM", "conditions": "CAM test in the presence of corticosteroids, Lapierre et al. Table III; cited from earlier work"}, "[2]": {"assay": "Evaluation of heparin toxicity in Balb/c mice", "format": "in vivo", "conditions": "q2dx5", "experimental": "20 6-week-old female Balb/c mice weighing 20 g (Harlan), divided into groups by casual randomisation, were treated with heparin sodium, as a reference, and with the compound according to the present invention called ST1514. The treatment schedule was of the q2dx5 type, i.e. 5 total administrations at intervals of 2 days, administering 200 μl/mouse of 50 mg/kg/10 ml and 25 mg/kg/10 ml solutions subcutaneously.\n48 hours after the last administration of the test substances a blood sample is taken for full blood count and haematological analysis.\nBlood sampling: the mice are placed in a hermetically sealed box, into which is insufflated CO2 in an amount sufficient to stun the animal. Blood is then taken from the retro-orbital plexus of each animal (approximately 1 ml of blood/mouse) which is distributed in amounts of 0.4 ml of blood/mouse in Eppendorf test tubes containing 20 μl of Vister heparin (5000 U/ml) for carrying out the full blood count and haematological analysis; and the same amount of blood is distributed in other Eppendorf test tubes containing 50 μl of 3.8% sodium citrate in order to perform prothrombin time determinations. After taking the blood sample, each animal is sacrificed by cervical dislocation.\nFull blood count: the appliance (Cell Analyzer 580 A, DELCON) is used according to the standard procedure described in the operating manual. The blood sample (25 μl) is taken by the dilutor and brought up to a volume of 10 ml (dil. 1:400) with isotonic solution (PLTA saline, DELCON). From this solution (called solution A), the dilutor automatically takes a sample of 100 μl and brings it up to a volume of 10 ml (dil. 1:100), thus obtaining solution B. To solution A are added 3 drops of Emosol (DELCON) for lysis of the red blood cells. This solution is used for the WBC reading. Solution B, on the other hand, is used for the RBC and platelet (PLT) readings. Each sample is read in duplicate.\nNone of the study treatment groups presents significant differences in the numbers of white blood cells as compared to the control group."}, "[3]": {"target": "T1, FGFR/FGF2/HSPG ternary complex (Homo sapiens, UniProt P09038)", "T1 construct": "FGFR-1 made by transfected HSPG-deficient CHO 745/flg cells; HSPGs on fixed CHO-K1 cells", "T1 sequence (P09038 143-288, one chain of several)": "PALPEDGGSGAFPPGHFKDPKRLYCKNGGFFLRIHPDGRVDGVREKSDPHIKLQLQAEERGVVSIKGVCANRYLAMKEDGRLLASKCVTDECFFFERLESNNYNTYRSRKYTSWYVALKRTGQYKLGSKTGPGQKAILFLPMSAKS", "assay": "Inhibition of FGF2-mediated intercellular adhesion of CHO-K1 and CHO-745flg cells", "format": "cell-based, Chinese hamsters", "source_text": "To this end an in-vitro model was designed capable of assessing the interference of the various different heparin derivatives with bFGF binding to its own receptor.\nThese latter cells were stably transfected with cDNA for green fluorescent protein and for this reason could be observed under the fluorescence microscope with a combination of filters for the detection of green emission. In brief, the technique is based on the possibility that the two types of cells may interact (form stable bonds) only if FGF is added to the two cell types. In fact, in this case, the heparan sulphates of the CHO-745flg cells will bind to FGF, which in turn will bind to the CHO-K1 cells, establishing a bridge. The binding that occurs is detectable as a result of the green fluorescence emitted by the CHO-745flg cells.\nCHO-K1 cells were seeded at a density of 90,000 cells/cm^2 in 24-well plates. After 24 hours the cells were fixed in 3% glutaraldehyde in PBS for 2 hours at 4° C. and washed with 0.1 M glycine/PBS. On the fixed monolayers CHO 745/flg cells, transfected with FGFR-1, at a density of 50,000 cells/cm^2 in DMEM containing 10 mM EDTA, 30 ng/ml FGF-2 and increasing doses of the test compounds. After 2 hours' incubation at 37° C., the adhering cells were counted under the inverted microscope. The results were expressed as percentage of the number of cells adhering compared to those measured in the absence of the test compounds."}, "[4]": {"tested_on": "L6-WT1 cells (rat myoblasts transfected with FGFR-1)", "assay": "Inhibition of DNA synthesis in L6 cells transfected with FGFR-1", "format": "cell-based", "conditions": "test compound 100 μ/ml", "experimental": "L6-WT1 cells (rat myoblasts transfected with FGFR-1) were seeded at a density of 25,000 cells/cm^2 in 48-well plates in DMEM+ 10% FCS. After 24 hours the cells were washed with serum-free medium and incubated for 48 hours with DMEM+ 0.5% FCS. The cells were then incubated for 16 hours with FGF-2 at the concentrations of 15 and 30 ng/ml in the presence or absence of the test compounds (all at 100 μ/ml). At the end of the incubation 3H-thymidine (0.25 μCi/well) was added without changing the medium. After 6 hours, precipitable TCA was measured. Each experimental point is the mean of 3 determinations."}, "BAEC cells": {"tested_on": "BAEC cells", "assay": "Test of cell proliferation in BAEC", "format": "cell-based, bovine", "conditions": "30 ng/ml FGF-2, 3 days, crystal-violet", "experimental": "BAEC cells at the 7th pass were seeded at a density of 2,500 cells/cm^2 in 96-well in EBM medium without bovine brain extract and hEGF. To this medium were added 30 ng/ml of FGF-2 and each of the test compounds at 5 concentrations ranging from 10 ng/ml to 100 μg/ml. After 3 days the cells were fixed and stained with crystal-violet and the optical density was determined by means of an ELISA microplate reader. Each experimental point was done in quadruplicate and the ID50 was calculated."}, "foetal BAEC GM 7373": {"tested_on": "foetal BAEC GM 7373", "assay": "Test of cell proliferation in foetal BAEC GM 7373", "format": "cell-based, bovine", "conditions": "GM7373, 10 ng/ml FGF-2, cell count", "experimental": "GM7373 cells were seeded at a density of 70,000 cells/cm^2 in 96-well plates in MEM+ 10% FCS medium. After 24 hours, the cells were washed with serum-free medium and treated with 10 ng/ml of FGF-2 in medium containing 0.4% FCS. After 8 hours, the test compounds were added to the medium at 5 concentrations ranging from 10 ng/ml to 100 μg/ml. After a further 16 hours, the cells were trypsinised and counted in a Burker chamber. The ID50 was calculated for each compound and the results are the means of 2 experiments in triplicate."}, "Endothelial Cell": {"tested_on": "Endothelial Cell", "assay": "Endothelial cell proliferation (Table 11)", "format": "cell-based", "conditions": "Table 11, endothelial cell proliferation"}, "[5]": {"conditions": "background table, structure/antimetastatic activity; cited from earlier work"}, "[6]": {"conditions": "50 mg/kg and 25 mg/kg subcutaneously"}},
  "data": [
    {"substance": "FGF-2: basic fibroblast growth factor, positive control with potent angiogenic activity on the CAM", "values": [
      {"measurement": "N. vessels at sponge/CAM interface", "setting": "[1]; 1 μg/embryo, positive control, macroscopic quantitative evaluation (Brooks)", "value": "50 + 4"}
    ]},
    {"substance": "2-O-desulfated heparin", "values": [
      {"measurement": "antiangiogenic activity relative to heparin (in words)", "setting": "CAM", "value": "partly maintained the antiangiogenic activity of heparin"}
    ]},
    {"substance": "heparin sodium", "values": [
      {"measurement": "platelets compared to the control group", "setting": "[2]; 25 mg/kg subcutaneously", "value": "significant platelet deficiency"},
      {"measurement": "haematoma at the inoculum site", "setting": "[2]; [6]", "value": "marked haematoma at the inoculum site"},
      {"measurement": "liver at autopsy", "setting": "[2]; [6]", "value": "livers with abnormal characteristics"},
      {"measurement": "red blood cells compared to the control group", "setting": "[2]; 50 mg/kg and 25 mg/kg subcutaneously, 48 hours after last administration", "value": "reduction in red blood cells"}
    ]},
    {"substance": "Heparin", "values": [
      {"measurement": "Inhibition (ID50) of intercellular adhesion", "setting": "[3]; 30 ng/ml FGF-2, 2 hours at 37° C., 6 concentrations 1 ng/ml to 100 μg/ml", "value": 100},
      {"measurement": "Cell-Cell Adh. (ID50, ng/mL)", "setting": "[3]; Table 11, FGF2-mediated cell-cell adhesion", "value": 100, "unit": "ng/mL"},
      {"measurement": "ID50, FGF2-mediated cell-cell adhesion test", "setting": "[3]; text b166", "value": 100, "unit": "ng/mL"},
      {"measurement": "Incorporation of 3H-thymidine (% vs. control)", "setting": "[4]; FGF-2 15 ng/ml", "value": 50, "unit": "% vs. control"},
      {"measurement": "Incorporation of 3H-thymidine (% vs. control)", "setting": "[4]; FGF-2 30 ng/ml", "value": 74, "unit": "% vs. control"},
      {"measurement": "Inhibition (ID50) of cell proliferation", "setting": "BAEC cells", "value": 100, "unit": "µg/mL"},
      {"measurement": "Inhibition (ID50) of cell proliferation", "setting": "foetal BAEC GM 7373", "value": 2, "unit": "µg/mL"},
      {"measurement": "CAM (% inhibition)", "setting": "[1]; 100 μg/embryo", "value": 0, "unit": "%"},
      {"measurement": "angiostatic activity on CAM (in words)", "setting": "[1]; remark below Tables 9 and 10", "value": "no activity"},
      {"measurement": "Cell Prolif. (ID50, ng/mL)", "setting": "Endothelial Cell", "value": "2 000 ng/mL"},
      {"measurement": "% inhibition (antimetastatic activity)", "setting": "[5]", "value": 97, "unit": "%"}
    ]}
  ]
}
